The record followed here is ChEMBL document CHEMBL5500324, “The potential of marine-derived piperazine alkaloids: Sources, structures and bioactivities” (Eur J Med Chem, 2024).

Converted amounts (≈) assume the structure as drawn.

A short description of data set [1]: Cytotoxicity against human A2780cis cells assessed as inhibition of cell growth incubated for 72 hrs by SRB assay. The format is functional, cell-based. (In general: The SRB assay estimates cell density from bound dye.)
Data set [2] has as its system PANC-1. Put plainly: Cytotoxicity against human PANC-1 cells assessed as reduction in cell viability. Type of data set: functional, cell-based.
In data set [3] the test system is P388. Briefly: Cytotoxicity against mouse P388 cells assessed as reduction in cell viability by SRB assay. The format is functional, cell-based.
Data set [4] deals with HL-60. Briefly: Cytotoxicity against human HL-60 cells assessed as reduction in cell viability measured for 24 hrs by MTT assay. The format is functional, cell-based. Conditions: HL-60, 24 h. On the technique in general: Tetrazolium assays rely on reduction of a dye to a coloured formazan, in cell work by metabolically active cells.
Data set [5] deals with HCT-116. Put plainly: Cytotoxicity against human HCT-116 cells assessed as inhibition of cell growth incubated for 72 hrs by SRB assay. Type of data set: functional, cell-based. Conditions: HCT-116, 72 h.
Data set [6] in a line: Cytotoxicity against Sf9 cells assessed as inhibition of cell growth measured after 24 hrs by MTT assay. The format is toxicity, cell-based. The settings on record: Spodoptera frugiperda.
Data set [7] has as its system A549. Put plainly: Cytotoxicity against human A549 cells assessed as reduction in cell viability by MTT assay. Type of data set: functional, cell-based.
Data set [8] relates to UMUC3. Put plainly: Cytotoxicity against human UMUC3 cells assessed as reduction in cell viability by MTT assay. The format is functional, cell-based.
The subject of data set [9] is HGC-27. Put plainly: Cytotoxicity against human HGC-27 cells assessed as reduction in cell viability by MTT assay. The format is functional, cell-based.
In data set [10] the test system is A549. Briefly: Cytotoxicity against human A549 cells assessed as inhibition of cell growth incubated for 48 hrs by MTT assay. The settings on record: A549, 48 h. The format is functional, cell-based.
Data set [11] deals with HT-29. Put plainly: Antiproliferative activity against human HT-29 cells assessed as reduction in cell viability incubated for 72 hrs by SRB assay. Type of data set: functional, cell-based. The settings on record: HT-29, 72 h.
Data set [12] deals with MDA-MB-231. Briefly: Antiproliferative activity against human MDA-MB-231 cells assessed as reduction in cell viability incubated for 72 hrs by SRB assay. The settings on record: MDA-MB-231, 72 h. Type of data set: functional, cell-based.
For data set [13], the system named is A549. Briefly: Antiproliferative activity against human A549 cells assessed as reduction in cell viability incubated for 72 hrs by SRB assay. The format is functional, cell-based. The settings on record: A549, 72 h.
For data set [14], the system named is HGC-27. Put plainly: Cytotoxicity against human HGC-27 cells assessed as reduction in cell viability. Type of data set: functional, cell-based.
The subject of data set [15] is MCF7. Put plainly: Cytotoxicity against human MCF7 cells assessed as reduction in cell growth incubated for 48 hrs by MTT assay. The format is functional, cell-based. The settings on record: MCF7, 48 h.
Data set [16] deals with HepG2. Briefly: Cytotoxicity against human HepG2 cells assessed as reduction in cell growth by MTT assay. The format is functional, cell-based.
The test system of data set [17] is P388. Briefly: Cytotoxicity against mouse P388 cells assessed as reduction in cell growth. Type of data set: functional. Conditions: read-out: ED50 (the source's name).
Data set [18] has as its system NCI-H460. Put plainly: Cytotoxicity against human NCI-H460 cells assessed as reduction in cell growth by MTT assay. The format is functional, cell-based.
In data set [19] the test system is HL-60. Briefly: Cytotoxicity against human HL-60 cells assessed as reduction in cell growth measured for 72 hrs by MTT assay. Type of data set: functional, cell-based. The settings on record: HL-60, 72 h.
The subject of data set [20] is L1210. Put plainly: Cytotoxicity against mouse L1210 cells assessed as reduction in cell growth measured after 72 hrs by MTT assay. Type of data set: functional, cell-based. The settings on record: L1210, 72 h.
Data set [21] deals with P388. Put plainly: Cytotoxicity against mouse P388 cells assessed as inhibition of cell growth incubated for 72 hrs by MTT assay. The settings on record: P388, 72 h. The format is functional, cell-based.
Data set [22] concerns Bel-7402. Put plainly: Anticancer activity against human Bel-7402 cells assessed as reduction in cell growth measured for 24 hrs by MTT assay. Type of data set: functional, cell-based. The settings on record: Bel-7402, 24 h.
The test system of data set [23] is A549. Put plainly: Anticancer activity against human A549 cells assessed as reduction in cell growth. Type of data set: functional, cell-based.
For data set [24], the system named is HL-60. Put plainly: Anticancer activity against human HL-60 cells assessed as inhibition of cell growth measured after 24 hrs by CCK-8 assay. The format is functional, cell-based. Conditions: HL-60, 24 h.
The subject of data set [25] is HeLa. Put plainly: Antitumor activity against human HeLa cells assessed as inhibition of cell growth by MTT assay. The format is functional, cell-based.
The nature of data set [26]: Antitumor activity against human A375.S2 cells assessed as cell growth inhibition. Type of data set: functional, cell-based.
For data set [27], the system named is P388. Put plainly: Antitumor activity against mouse P388 cells assessed as cell growth inhibition. The format is functional, cell-based.

Regarding `O=C1N2[C@H]3C(=CC=C[C@@H]3O)C[C@]23SS[C@]12C[C@H]1[C@@H]([C@@H](O)C=C[C@@H]1O)N2C3=O`, the IC50 (commonly the point on the concentration scale where inhibition reaches its midpoint) in [1] was found to be 0.661 µM.

Regarding `COc1ccc([C@H]2SS[C@@]34C[C@]5(O)[C@H](Cl)C=C[C@@H](O)[C@@H]5ON3C(=O)[C@@H]2NC4=O)c(O)c1OC`, the 50% inhibitory concentration (IC50) in data set [2] stood at 0.02 µM.

Take `C=CC(C)(C)c1[nH]c2ccccc2c1/C=C1\NC(=O)[C@]2(C[C@H](C)C=C[C@@H]2CCc2c(O)cc(CC=C(C)C)c(O)c2C=O)NC1=O`: the IC50 in data set [3] amounted to 1.83 µM.

On to `CC1(C)C=Cc2c(ccc3c2NC(=O)C(C)(C)/C=C\N2C(=O)C4=CCCN4C(=O)[C@@H]2CC3=O)O1`, for which, in data set [4], the IC50 stood at 8.7 µM.

As for `O=C1N[C@@](O)(Cc2ccccc2)C(=O)N2CCC[C@@H]12`, in data set [5], the IC50 worked out at 23 µM.

As to `CS[C@@]1(Cc2ccccc2)NC(=O)[C@](O)(Cc2ccccc2)NC1=O`, the IC50 at 24 h in data set [6] turned out to be 0.7 µM.

For `CC(C)C[C@H]1NC(=O)[C@H](CCC(N)=O)n2c1nc1ccccc1c2=O`, the IC50 in data set [7] came to 6 µM; in [8], 7.2 µM; in [9], 6.2 µM.

For the molecule `CN1C[C@@H](c2c[nH]c3cc(Br)ccc23)N(C)C[C@@H]1c1c[nH]c2ccccc12`, the IC50 in [10] turned out to be 4.1 µM; in [11], 4.8 µM; in data set [12], 7.5 µM; in [13] it was 4.7 µM.

On to `C=CC(C)(C)c1[nH]c2ccccc2c1/C=C1\NC(=O)[C@@H]2CCCN2C1=O`, for which the IC50 in [14] turned out to be 4.54 µM.

As for `CN1C(=O)[C@@]23SS[C@]1(C)C(=O)N2[C@H]1Nc2ccccc2[C@@]1(c1c[nH]c2ccccc12)[C@@H]3O`, the IC50 in [15] came to 0.23 µM; in [16], 0.53 µM; in data set [18], 0.23 µM. Further, the EC50 in data set [17] was 2.4 µg/mL (≈ 5.17 µM).

For the molecule `CSC12NC(=O)C(Cc3ccc(OCC=C(C)C)cc3)(NC1=O)[C@H]1C(=O)O[C@H](C)C/C=C/C(=O)O[C@H](C)C[C@@H](O)C(=O)[C@H]12` (some centres not stated), the 50% inhibitory concentration (IC50) is 2.2 µM in data set [19], 11.7 µM in data set [20] and 6.8 µM in data set [21].

For `CC(C)=CCC/C(C)=C/COc1ccc(C[C@@H]2NC(=O)[C@H](C)NC2=O)cc1`, the IC50 in data set [22] was 3.2 µM; in data set [23], 1.37 µM; in data set [24], 1.73 µM; in data set [25], 3.4 µM; in data set [26], 4.6 µM; in data set [27], 2.86 µM.
